Assay results reported in EP2776398B1, “SUBSTITUTED PYRAZOLYL-BASED UREA DERIVATIVES AS VANILLOID RECEPTOR LIGANDS” (Medifron DBT Inc., priority 2011, dated 2013).

target: T1, vanilloid receptor 1 (VR1/TRPV1 receptor) (Homo sapiens, UniProt Q8NER1); test: Functional testing on vanilloid receptor 1: FLIPR Ca2+ influx assay against capsaicin (Cap) in transfected CHO K1 cells (pharmacological method II); type: cell-based; set-up: key to (f) Ki (human being) [nM] Cap: agonist classification: AG = agonist; conditions: @ 1µM; human VR1 in CHO K1 cells; capsaicin; relative to maximum inhibition with 10 µM capsazepine; read-out: inhibition (as a percentage), printed in column (f) Ki (human being) [nM] Cap; for Ki: 100 nM capsaicin
T1 construct: expressed in transfected cells; host or cells: CHO K1 cells (ECACC), stably transfected
T1 sequence (Q8NER1 whole entry): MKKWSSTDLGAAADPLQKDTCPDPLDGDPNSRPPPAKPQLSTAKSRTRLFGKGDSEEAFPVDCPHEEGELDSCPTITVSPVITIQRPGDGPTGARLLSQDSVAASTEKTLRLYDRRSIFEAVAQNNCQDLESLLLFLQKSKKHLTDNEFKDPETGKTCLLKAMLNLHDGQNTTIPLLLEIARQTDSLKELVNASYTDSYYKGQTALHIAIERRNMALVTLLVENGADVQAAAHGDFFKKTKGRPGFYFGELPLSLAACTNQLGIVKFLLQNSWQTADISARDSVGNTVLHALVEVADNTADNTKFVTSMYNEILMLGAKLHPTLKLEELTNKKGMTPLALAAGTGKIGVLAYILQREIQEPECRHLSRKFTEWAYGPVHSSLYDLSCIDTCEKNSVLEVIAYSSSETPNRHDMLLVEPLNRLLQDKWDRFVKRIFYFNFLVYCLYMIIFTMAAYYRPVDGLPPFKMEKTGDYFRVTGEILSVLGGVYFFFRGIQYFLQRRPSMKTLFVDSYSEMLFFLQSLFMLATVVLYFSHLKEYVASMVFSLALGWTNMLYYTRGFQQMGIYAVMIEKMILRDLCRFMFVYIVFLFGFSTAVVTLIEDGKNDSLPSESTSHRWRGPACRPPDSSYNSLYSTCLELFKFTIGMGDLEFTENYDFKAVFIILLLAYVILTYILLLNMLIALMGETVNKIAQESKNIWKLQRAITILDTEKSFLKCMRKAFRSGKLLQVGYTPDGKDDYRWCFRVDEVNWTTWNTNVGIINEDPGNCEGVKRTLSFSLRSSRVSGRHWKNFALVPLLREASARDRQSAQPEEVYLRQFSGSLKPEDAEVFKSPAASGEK
From the text: […]

O=C(NCc1cc(C(F)(F)F)nn1-c1cccc(F)c1)Nc1ccc(OCC(O)CO)cc1 (stereo not drawn) [A26, 1-[4-(2,3-Dihydroxy-propoxy)-phenyl]-3-[[2-(3-fluorophenyl)-5-(trifluoromethyl)-2H-pyrazol-3-yl]-methyl]-urea] gave an inhibition at 1 µM of 34%.

same assay, conditions: human VR1 in CHO K1 cells; AG printed instead of a Ki

For CC(C(=O)NCc1cc(C(F)(F)F)nn1-c1cccc(C(F)(F)F)c1)c1ccc(CO)c(F)c1 (stereo not drawn) [A48, 2-[3-Fluoro-4-(hydroxymethyl)-phenyl]-N-[[5-(trifluoromethyl)-2-[3-(trifluoromethyl)phenyl]-2H-pyrazol-3-yl]-methyl]-propionamide], the “(f) Ki (human being) [nM] Cap: agonist classification” value (from here on “(f) Ki (human being) [nM] Cap”) was “AG”.
CC(C)(C)c1cc(CNC(=O)Nc2ccc(CCO)c(F)c2)n(-c2cccc(Cl)c2)n1 [A140, 1-[[5-tert-Butyl-2-(3-chlorophenyl)-2H-pyrazol-3-yl]-methyl]-3-[3-fluoro-4-(2-hydroxy-ethyl)-phenyl]-urea] was tested, and the “(f) Ki (human being) [nM] Cap” value was “AG”.
In the case of CC(C)(C)c1cc(CNC(=O)Nc2ccc(OCC(O)CO)c(F)c2)n(-c2cccc(Cl)c2)n1 (stereo not drawn) [A24, 1-[[5-tert-Butyl-2-(3-chlorophenyl)-2H-pyrazol-3-yl]-methyl]-3-[4-(2,3-dihydroxy-propoxy)-3-fluoro-phenyl]-urea], the “(f) Ki (human being) [nM] Cap” value is reported as “AG”.
For COc1ccc(NC(=O)NCc2cc(C(F)(F)F)nn2-c2cccc(Cl)c2)cc1O [A16, 1-[[2-(3-Chlorophenyl)-5-(trifluoromethyl)-2H-pyrazol-3-yl]-methyl]-3-(3-hydroxy-4-methoxy-phenyl)-urea], the “(f) Ki (human being) [nM] Cap” value was “AG”.
For COc1cc(C(C)C(=O)NCc2cc(C(C)(C)C)nn2-c2cccc(Cl)c2)ccc1CO (stereo not drawn) [A49, N-[[5-tert-Butyl-2-(3-chlorophenyl)-2H-pyrazol-3-yl]-methyl]-2-[4-(hydroxymethyl)-3-methoxy-phenyl]-propionamide], the “(f) Ki (human being) [nM] Cap” value was “AG”.
CC(C(=O)NCc1cc(C(C)(C)C)nn1-c1cccc(F)c1)c1ccc(CO)c(F)c1 (stereo not drawn) [A37, N-[[5-tert-Butyl-2-(3-fluorophenyl)-2H-pyrazol-3-yl]-methyl]-2-[3-fluoro-4-(hydroxymethyl)-phenyl]-propionamide] was tested, and the “(f) Ki (human being) [nM] Cap” value was “AG”.

same assay, conditions: read-out: (f) Ki (human being) [nM] Cap

First: O=C(NCc1cc(C(F)(F)F)nn1-c1cccc(Cl)c1)Nc1ccc(CO)cc1 [A28, 1-[[2-(3-Chlorophenyl)-5-(trifluoromethyl)-2H-pyrazol-3-yl]-methyl]-3-[4-(hydroxymethyl)-phenyl]-urea]
Second: CC(C)(C)c1cc(CNC(=O)Nc2ccc(CO)cc2)n(-c2cccc(Cl)c2)n1 [A27, 1-[[5-tert-Butyl-2-(3-chlorophenyl)-2H-pyrazol-3-yl]-methyl]-3-[4-(hydroxymethyl)-phenyl]-urea]
The Ki of the first is 22-fold higher: 22 nM for the first, 1 nM for the second.

CC(C(=O)NCc1cc(C(C)(C)C)nn1-c1cccc(OC(F)(F)F)c1)c1ccc(COCCO)c(F)c1 (stereo not drawn) [A125, N-[[5-tert-Butyl-2-[3-(trifluoromethyloxy)-phenyl]-2H-pyrazol-3-yl]-methyl]-2-[3-fluoro-4-(2-hydroxy-ethoxy-methyl)-phenyl]-propionamide] and COc1cccc(-n2nc(C(F)(F)F)cc2CNC(=O)C(C)c2ccc(CO)c(F)c2)c1 (stereo not drawn) [A43, 2-[3-Fluoro-4-(hydroxymethyl)-phenyl]-N-[[2-(3-methoxyphenyl)-5-(trifluoromethyl)-2H-pyrazol-3-yl]-methyl]-propionamide] are within 1.5-fold of each other in Ki: 15 nM for the first, 21 nM for the second.

Compared with CC(C(=O)NCc1cc(C(C)(C)C)nn1-c1ccc(F)cc1)c1ccc(CO)c(F)c1 (stereo not drawn) [A45, N-[[5-tert-Butyl-2-(4-fluorophenyl)-2H-pyrazol-3-yl]-methyl]-2-[3-fluoro-4-(hydroxymethyl)-phenyl]-propionamide], CC(C(=O)NCc1cc(C(F)(F)F)nn1-c1ccc(F)c(F)c1)c1ccc(CO)c(F)c1 (stereo not drawn) [A40, N-[[2-(3,4-Difluoro-phenyl)-5-(trifluoromethyl)-2H-pyrazol-3-yl]-methyl]-2-[3-fluoro-4-(hydroxymethyl)-phenyl]-propionamide] is 27-fold higher in Ki: 1 nM for the first, 27 nM for the second. The first binds more tightly here.

First: COc1c(F)cc(CC(=O)NCc2cc(C(C)(C)C)nn2-c2cccc(Cl)c2)cc1F [A1, N-[[5-tert-Butyl-2-(3-chlorophenyl)-2H-pyrazol-3-yl]-methyl]-2-(3,5-difluoro-4-methoxy-phenyl)-acetamide]
Second: CC(C)(C)c1cc(CNC(=O)Cc2ccc(CO)c(F)c2)n(-c2cccc(Cl)c2)n1 [A29, N-[[5-tert-Butyl-2-(3-chlorophenyl)-2H-pyrazol-3-yl]-methyl]-2-[3-fluoro-4-(hydroxymethyl)-phenyl]-acetamide]
The Ki of the first is 12-fold higher: 12 nM for the first, 1 nM for the second. The second binds more tightly here.

Going from O=C(NCc1cc(C(F)(F)F)nn1-c1cccc(Cl)c1)Nc1ccc(CCO)c(F)c1 [A141, 1-[[2-(3-Chlorophenyl)-5-(trifluoromethyl)-2H-pyrazol-3-yl]-methyl]-3-[3-fluoro-4-(2-hydroxy-ethyl)-phenyl]-urea] to O=C(NCc1cc(C(F)(F)F)nn1-c1cccc(Cl)c1)Nc1ccc(C(O)CO)c(F)c1 (stereo not drawn) [A151, 1-[[2-(3-Chlorophenyl)-5-(trifluoromethyl)-2H-pyrazol-3-yl]-methyl]-3-[4-(1,2-dihydroxy-ethyl)-3-fluoro-phenyl]-urea], the Ki rises from 26 nM to 62 nM (2.4-fold). The first binds more tightly here.

Compared with O=C(NCc1cc(C(F)(F)F)nn1-c1ccc(F)c(Cl)c1)Nc1ccc(COCCO)c(F)c1 [A130, 1-[[2-(3-Chloro-4-fluoro-phenyl)-5-(trifluoromethyl)-2H-pyrazol-3-yl]-methyl]-3-[3-fluoro-4-(2-hydroxy-ethoxy-methyl)-phenyl]-urea], O=C(NCc1cc(C(F)(F)F)nn1-c1ccc(F)c(Cl)c1)Nc1ccc(CO)c(F)c1 [A65, 1-[[2-(3-Chloro-4-fluoro-phenyl)-5-(trifluoromethyl)-2H-pyrazol-3-yl]-methyl]-3-[3-fluoro-4-(hydroxymethyl)-phenyl]-urea] is 7.8-fold lower in Ki: 47 nM for the first, 6 nM for the second.

Compared with CC(C(=O)NCc1cc(C(F)(F)F)nn1-c1cccc(Cl)c1)c1ccc(CCO)c(F)c1 (stereo not drawn) [A138, N-[[2-(3-Chlorophenyl)-5-(trifluoromethyl)-2H-pyrazol-3-yl]-methyl]-2-[3-fluoro-4-(2-hydroxy-ethyl)-phenyl]-propionamide], CC(C(=O)NCc1cc(C(F)(F)F)nn1-c1cccc(Cl)c1)c1ccc(CO)c(F)c1 (stereo not drawn) [A33, N-[[2-(3-Chlorophenyl)-5-(trifluoromethyl)-2H-pyrazol-3-yl]-methyl]-2-[3-fluoro-4-(hydroxymethyl)-phenyl]-propionamide] is 4-fold lower in Ki: 8 nM for the first, 2 nM for the second. The second binds more tightly here.

First: CC(C)(C)c1cc(CNC(=O)Nc2ccc(CO)c(Cl)c2)n(-c2cccc(Cl)c2)n1 [A96, 1-[[5-tert-Butyl-2-(3-chlorophenyl)-2H-pyrazol-3-yl]-methyl]-3-[3-chloro-4-(hydroxymethyl)-phenyl]-urea]
Second: CN(C)c1cccc(-n2nc(C(F)(F)F)cc2CNC(=O)Nc2ccc(CO)c(F)c2)c1 [A86, 1-[[2-(3-Dimethylamino-phenyl)-5-(trifluoromethyl)-2H-pyrazol-3-yl]-methyl]-3-[3-fluoro-4-(hydroxymethyl)-phenyl]-urea]
The Ki of the first is 12-fold lower: 2 nM for the first, 25 nM for the second.

Compared with CC(C(=O)NCc1cc(C(F)(F)F)nn1-c1cccc(Cl)c1)c1ccc(C2(O)CC2)c(F)c1 (stereo not drawn) [A101, N-[[2-(3-Chlorophenyl)-5-(trifluoromethyl)-2H-pyrazol-3-yl]-methyl]-2-[3-fluoro-4-(1-hydroxy-cyclopropyl)-phenyl]-propionamide], COc1cccc(-n2nc(C(F)(F)F)cc2CNC(=O)C(C)c2ccc(C3(O)CC3)c(F)c2)c1 (stereo not drawn) [A103, 2-[3-Fluoro-4-(1-hydroxy-cyclopropyl)-phenyl]-N-[[2-(3-methoxyphenyl)-5-(trifluoromethyl)-2H-pyrazol-3-yl]-methyl]-propionamide] is 5.5-fold higher in Ki: 4 nM for the first, 22 nM for the second.

Going from O=C(NCc1cc(C(F)(F)F)nn1-c1cccc(C(F)F)c1)Nc1ccc(CO)c(F)c1 [A83, 1-[[2-[3-(Difluoro-methyl)-phenyl]-5-(trifluoromethyl)-2H-pyrazol-3-yl]-methyl]-3-[3-fluoro-4-(hydroxymethyl)-phenyl]-urea] to Cc1ccc(-n2nc(C(F)(F)F)cc2CNC(=O)Nc2ccc(CO)c(F)c2)cc1C [A75, 1-[[2-(3,4-Dimethyl-phenyl)-5-(trifluoromethyl)-2H-pyrazol-3-yl]-methyl]-3-[3-fluoro-4-(hydroxymethyl)-phenyl]-urea], the Ki rises from 12 nM to 19 nM (1.6-fold). The first binds more tightly here.

Going from COc1c(C)cccc1-n1nc(C(F)(F)F)cc1CNC(=O)Nc1ccc(CO)c(F)c1 [A94, 1-[3-Fluoro-4-(hydroxymethyl)-phenyl]-3-[[2-(2-methoxy-3-methyl-phenyl)-5-(trifluoromethyl)-2H-pyrazol-3-yl]-methyl]-urea] to Cc1ccccc1-n1nc(C(F)(F)F)cc1CNC(=O)Nc1ccc(CO)c(F)c1 [A69, 1-[3-Fluoro-4-(hydroxymethyl)-phenyl]-3-[[2-(o-tolyl)-5-(trifluoromethyl)-2H-pyrazol-3-yl]-methyl]-urea], the Ki rises from 30 nM to 45 nM (1.5-fold). The first binds more tightly here.

First: Cc1cc(C)cc(-n2nc(C(F)(F)F)cc2CNC(=O)Nc2ccc(CO)c(F)c2)c1 [A73, 1-[[2-(3,5-Dimethyl-phenyl)-5-(trifluoromethyl)-2H-pyrazol-3-yl]-methyl]-3-[3-fluoro-4-(hydroxymethyl)-phenyl]-urea]
Second: O=C(NCc1cc(C(F)(F)F)nn1-c1cccc(F)c1)Nc1ccc(COCCO)c(F)c1 [A131, 1-[3-Fluoro-4-(2-hydroxy-ethoxy-methyl)-phenyl]-3-[[2-(3-fluorophenyl)-5-(trifluoromethyl)-2H-pyrazol-3-yl]-methyl]-urea]
The Ki of the first is 2.1-fold lower: 27 nM for the first, 56 nM for the second. The first binds more tightly here.

Compared with CC(C(=O)NCc1cc(C(F)(F)F)nn1-c1cccc(Cl)c1)c1cc(F)c(O)c(F)c1 (stereo not drawn) [A10, N-[[2-(3-Chlorophenyl)-5-(trifluoromethyl)-2H-pyrazol-3-yl]-methyl]-2-(3,5-difluoro-4-hydroxy-phenyl)-propionamide], CC(C)c1cccc(-n2nc(C(F)(F)F)cc2CNC(=O)C(C)c2ccc(CO)c(F)c2)c1 (stereo not drawn) [A44, 2-[3-Fluoro-4-(hydroxymethyl)-phenyl]-N-[[2-(3-isopropyl-phenyl)-5-(trifluoromethyl)-2H-pyrazol-3-yl]-methyl]-propionamide] is 5-fold lower in Ki: 1 nM for the first, 0.2 nM for the second.
